Here are results for 12 compounds from patent US9045506B2, “Diphosphonate compound and a method for preparing the same and an application of the same” (Chengdu Yunke Pharmaceutical Co., Ltd., priority 2010, dated 2015).

Marks after values point to notes of the source that are not given here.

For assay [1] the following is noted: relative to Etidronate; cited from earlier work.
Another assay deals with osteoblasts MG63. Briefly: Osteoblast proliferation, MTT method. The following applies: for effect on MG63 cell proliferation (in words): cocultured 72 h, P<0.05 vs control groups; for Cell proliferation (MTT method), absorbance value under 490 nm: MG63, n = 4, x ± s. The format is cell-based. On the technique in general: Formazan colour is commonly taken as a measure of viable cells.

A further assay has as its system osteoblasts. Briefly: Calcium deposition assay (alizarin red method). The following applies: for calcium deposition of osteoblasts (in words): lower / low concentration; for ARS concentration / calcium nodule size: 5 d, n = 4, x ± s. Format: cell-based. The protocol: Next, each well is added with 1 mL extract (extract preparation: 800 mL 10% acetic acid with 200 mL anhydrous ethyl alcohol), and extracted for 30 min-45 min, kept in dark, shaken slightly, the absorbance of 450 nm wavelength is measured and recorded. […] As alizarin red S and calcium are linear correlated, the calcium deposition is evaluated according to the alizarin red S concentration.

Assay [2] has as its system osteoclasts. Briefly: Osteoclast cell formation, counting of TRAP staining positive cells. Format: cell-based, Japanese White Rabbit. The following applies: for OC cell formation, TRAP staining positive cells counted: n = 6, x ± s. The procedure: (§1) The osteoclasts is cultured using a modified Chambers method, the new-born Japanese White Rabbit (1 week-age, provided by Experimental Animal Center of West China Medical Center of Sichuan University) is sacrificed by neck dislocation, and dipped in 75% ethanol for 5 min, long bones are taken out under sterile condition, and soft tissue, periosteum as well as osteoepiphysis on the bone surface are removed in D-Hanks balanced salt solution, clean the bone shaft with α-MEM 2 times, and then cut off the long bone longitudinally in α-MEM full media (containing 15% fetal calf serum, penicillin 100 U/mL, streptomycin […], 25 m MHEPES, pH 7.0-7.2), scrape the medullar cavity of the bone gently until it is clean, and use a pipette (5 mL syringe, 25 G syringe needle) to rinse the medullar cavity repeatedly with culture media, and then the rinse solution is collected and filtered with cell strainer to remove bone fragment, and centrifuged at 1000 rpm for 5 min, the precipitate is suspended by 10 mL α-MEM, a hematocytometer is used for cell counting, the cell density in suspension is adjusted to 1×10^7/mL, and inoculate the cells in 6-well plates, and co-cultured with glass slide or bone slice, after 60 min the culture media was replaced with α-MEM induction culture media (containing 15% fetal bovine serum, 10 nM 1, 25-(OH)2VitD3, penicillin 100 U/mL, streptomycin 100 μg/mL, 25 mM HEPES, pH 7.0-7.2), the culture media is replaced every 3 days.
Each group of osteoclasts is performed with tartrate-resistant acid phosphatase (TRAP) staining, observed in optical microscope, and the TRAP staining positive cells are counted.

In assay [3] the test system is osteoclasts. Briefly: Osteoclastic absorption, resorption pit size on bone slices. Format: cell-based, Japanese White Rabbit. The following applies: for formation and size of resorption pit of the osteoclast: 5 days' culture, n = 6, x ± s. The protocol:
as §1

Experimental for osteoblasts MG63: MTT method is used to evaluate the effects of the drug on the activity of proliferation of osteoblasts MG63, wherein each well of 96-well plate is added with fresh MTT (5 mg/mL) 100 μL, incubated under 37° C. for 4 h, and vibrated every a period of time, then the supernatant is removed, and each well is added with 200 μL DMSO (DMSO, Sigma corp.), and vibrated on micro-oscillator for 10 min, and equivalent amount of liquid is transferred to an new plate, and the absorbance value under 490 nm is measured, referring to table 1.

For the compound `O=P(O)(O)C(O)(Cn1ccnc1)P(=O)(O)O` [Zoledronate], the “bone affinity, times stronger than Etidronate” value in assay [1] is listed as “over 10000 times”.

For the compound `O=c1c2ccccc2[se]n1-c1ccc(CC(P(=O)(O)O)P(=O)(O)O)cc1` [SC-1, 4-(3-carbonylbenzo[d][1,2]selenazole-2(3H))-benzyl-methylene diphosphonic acid], the “effect on MG63 cell proliferation (in words)” value (from here on “effect”) with osteoblasts MG63 (10^−9 mol/L) is reported as “enhance MG63 cell proliferation”. Further, the “calcium deposition of osteoblasts (in words)” value (shortened to “calcium deposition”) in the assay with osteoblasts was “increases the calcium deposition of osteoblasts obviously”.

Turning to “4-(3-carbonylcyclohexano[d][1,2]selenazole-2(3H))-benzyl-1-hydroxyl-methylenediphosphonic acid [SC-8]”, the “Cell proliferation (MTT method), absorbance value under 490 nm” value was 0.376 ± 0.009 with osteoblasts MG63 (10^−5 mol/L, 24 h); 0.412 ± 0.007 in the assay on osteoblasts MG63 (10^−5 mol/L, 48 h); 0.342 ± 0.008 in the assay with osteoblasts MG63 (10^−5 mol/L, 72 h); 0.373 ± 0.010 in the assay on osteoblasts MG63 (10^−7 mol/L, 24 h); 0.439 ± 0.012 in the assay on osteoblasts MG63 (10^−7 mol/L, 48 h); 0.709 ± 0.010 in the assay on osteoblasts MG63 (10^−7 mol/L, 72 h). The “Cell proliferation (MTT method), absorbance value under 490 nm” value turned out to be 0.355 ± 0.009 in the assay with osteoblasts MG63 (10^−9 mol/L, 24 h); 0.421 ± 0.008 in the assay on osteoblasts MG63 (10^−9 mol/L, 48 h); 0.773 ± 0.013 in the assay on osteoblasts MG63 (10^−9 mol/L, 72 h). Also, the “effect” value in the assay on osteoblasts MG63 (10^−9 mol/L) is listed as “enhance MG63 cell proliferation”. The ARS concentration in the assay with osteoblasts (10^−5 mol/L) was determined as 309 ± 13 µg/mL; with osteoblasts (10^−7 mol/L), 354 ± 23 µg/mL; with osteoblasts (10^−9 mol/L), 395 ± 17 µg/mL. The calcium nodule size in the assay with osteoblasts (10^−5 mol/L) was 1.32 ± 0.11 mm^2; in the assay with osteoblasts (10^−7 mol/L), 1.66 ± 0.16 mm^2; in the assay on osteoblasts (10^−9 mol/L), 1.96 ± 0.19* mm^2. For the same compound, the “OC cell formation, TRAP staining positive cells counted” value was determined as 6 ± 2 in the assay on osteoclasts [2] (10^−5 mol/L, 3 d); 9 ± 2 in the assay with osteoclasts [2] (10^−5 mol/L, 5 d); 10 ± 2 with osteoclasts [2] (10^−7 mol/L, 3 d); 15 ± 4 with osteoclasts [2] (10^−7 mol/L, 5 d); 12 ± 3 with osteoclasts [2] (10^−9 mol/L, 3 d); 21 ± 6 in the assay on osteoclasts [2] (10^−9 mol/L, 5 d). Moreover, the “formation and size of resorption pit of the osteoclast” value with osteoclasts [3] (10^−5 mol/L) is on record as 12.23 ± 3.06; in the assay on osteoclasts [3] (10^−7 mol/L) it was 64.45 ± 8.77; in the assay on osteoclasts [3] (10^−9 mol/L), 118.25 ± 14.73.

In the case of `O=c1c2cc(Cl)ccc2[se]n1-c1ccc(CC(P(=O)(O)O)P(=O)(O)O)cc1` [SC-9, 4-(3-carbonyl-5-chlorobenzo[d][1,2]selenazole-2(3H))-benzyl-methylene diphosphonic acid], the “calcium deposition” value in the assay with osteoblasts is given as “increases the calcium deposition of osteoblasts obviously”.

Regarding `O=c1c2cc(Cl)ccc2[se]n1-c1ccc(CC(O)(P(=O)(O)O)P(=O)(O)O)cc1` [SC-10, 4-(3-carbonyl-5-chlorobenzo[d][1,2]selenazole-2(3H))-benzyl-1-hydroxyl-methylene diphosphonic acid], in the assay with osteoblasts, the “calcium deposition” value was “increases the calcium deposition of osteoblasts obviously”.

As for `O=c1c2ccccc2[se]n1Cc1ccc(CC(P(=O)(O)O)P(=O)(O)O)cc1` [SC-11, 4-(2-methylbenzo[d][1,2]selenazole-3 (2H)-ketone)-benzyl-methylene diphosphonic acid], the “calcium deposition” value in the assay with osteoblasts is recorded as “increases the calcium deposition of osteoblasts obviously”.

Take `O=c1c2ccccc2sn1-c1ccc(CC(P(=O)(O)O)P(=O)(O)O)cc1` [SC-15, 4-(3-carbonylbenzo[d][1,2]sulfonazole-2(3H))-benzyl-methylene diphosphonic acid]: the “calcium deposition” value in the assay on osteoblasts was “increases the calcium deposition of osteoblasts obviously”.

Regarding `NCCCC(O)(P(=O)(O)O)P(=O)(O)O` [Alen, alendronate sodium, reference compound], the “cell proliferation activity (in words)” value in the assay with osteoblasts MG63 (10^−5, 10^−7 mol/L for 72 h, P<0.01 vs control groups) is “cell proliferation activity is inhibited in different degrees”. In the assay on osteoblasts MG63 (range of concentrations, within 48 h), the “influence on proliferation of MG63 cells (in words)” value is “no influence on proliferation of MG63 cells”. Besides, the “calcium deposition” value with osteoblasts is on record as “not found that Alen group of low concentration can enhance the calcium deposition of osteoblasts”. Besides, the “formation of osteoclasts compared with blank (in words)” value in the assay on osteoclasts [2] (all concentrations) is reported as “can inhibit the formation of osteoclasts”. Further, in the assay on osteoclasts [3] (p<0.01), the “resorption pits size compared with blank (in words)” value is listed as “decrease obviously”.

For `O=c1c2ccccc2[se]n1-c1ccc(CC(O)(P(=O)(O)O)P(=O)(O)O)cc1` [SC-2, 4-(3-carbonylbenzo[d][1,2]selenazole-2(3H))-benzyl-methylene-1-hydroxyl-methylene diphosphonic acid], the “effect” value in the assay on osteoblasts MG63 (10^−9 mol/L) is recorded as “enhance MG63 cell proliferation”. For the same compound, in the assay on osteoblasts, the “calcium deposition” value was “increases the calcium deposition of osteoblasts obviously”.

With `O=c1c2ccccc2[se]n1-c1ccc(CCC(P(=O)(O)O)P(=O)(O)O)cc1` [SC-13, 4-(3-carbonylbenzo[d][1,2]selenazole-2(3H))-phenylethyl-methylenediphosphonic acid], in the assay on osteoblasts, the “calcium deposition” value was “increases the calcium deposition of osteoblasts obviously”.

Regarding `O=c1c2ccccc2[se]n1-c1ccc(CCC(O)(P(=O)(O)O)P(=O)(O)O)cc1` [SC-14, 4-(3-carbonylbenzo[d][1,2]selenazole-2(3H))-phenylethyl-1-hydroxyl-methylene diphosphonic acid], the “calcium deposition” value in the assay on osteoblasts was “increases the calcium deposition of osteoblasts obviously”.

As to `O=c1c2ccccc2[se]n1Cc1ccc(CC(O)(P(=O)(O)O)P(=O)(O)O)cc1` [SC-12, 4-(2-methylbenzo[d][1,2]selenazole-3 (2H)-ketone)-benzyl-1-hydroxyl-methylene diphosphonic acid], the “calcium deposition” value in the assay with osteoblasts is “increases the calcium deposition of osteoblasts obviously”.
